Data on 33 compounds can be found in PubChem BioAssay AID493250 (Broad Institute, 2011).

Activity calls are given as the source filed them.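 The calls were made as follows: active = signal decrease with fitted half-maximal dose at or below ten times the highest valid tested dose; inconclusive = poor fit, or flat fit at 30 to 70% inhibition; inactive = the rest.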

The test has as its target Zinc finger protein mex-5 (Caenorhabditis elegans) (UniProt Q9XUB2). As to the kind of experiment: MEX-5 zinc finger-RNA interaction blockers – biochemical, fluorescence polarization, C. elegans, cherry-picked, round 3, dose response (AID 493250). Conditions: purified MEX-5-MBP, FITC-TCR2 RNA fluorescence polarization; for activity change, negative = inhibition: at 10 µM (top of the series).

Chain of Zinc finger protein mex-5 (Caenorhabditis elegans) (Q9XUB2 whole entry, looked up): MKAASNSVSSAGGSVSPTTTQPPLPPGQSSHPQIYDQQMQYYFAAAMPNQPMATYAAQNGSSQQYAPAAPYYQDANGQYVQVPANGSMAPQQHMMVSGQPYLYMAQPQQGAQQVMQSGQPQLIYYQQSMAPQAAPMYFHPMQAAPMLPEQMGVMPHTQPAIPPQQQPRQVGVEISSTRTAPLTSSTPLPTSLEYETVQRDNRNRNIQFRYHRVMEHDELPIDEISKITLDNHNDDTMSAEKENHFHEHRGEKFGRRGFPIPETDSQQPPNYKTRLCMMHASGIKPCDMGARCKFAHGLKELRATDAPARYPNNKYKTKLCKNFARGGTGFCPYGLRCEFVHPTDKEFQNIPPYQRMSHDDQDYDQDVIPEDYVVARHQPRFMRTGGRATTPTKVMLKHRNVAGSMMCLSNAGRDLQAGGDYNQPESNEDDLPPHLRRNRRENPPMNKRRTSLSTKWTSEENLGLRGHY

In the case of `CC1=C(C(=O)OCc2ccccc2)C(c2cccc([N+](=O)[O-])c2)NC(=O)N1C` (stereo not drawn), the “activity change, negative = inhibition” value was “inactive”.

In the case of `C=CCOc1ccc(C(c2c(C(=O)O)[nH]c3ccccc23)c2c(C(=O)O)[nH]c3ccccc23)cc1`, the “activity change, negative = inhibition” value is “inactive”.

Take `Cc1cc(C)c2ccc(=S)[nH]c2n1`: the “activity change, negative = inhibition” value was “inactive”.

As to `COc1ccc(OC)c(-n2c(-c3cc(-c4ccco4)[nH]n3)n[nH]c2=S)c1`, the “activity change, negative = inhibition” value is “inactive”.

Turning to `CCOc1ccc(/C=C/C(=O)c2ccccc2)cc1`, the “activity change, negative = inhibition” value was “inactive”.

Regarding `O=c1[nH]nc(CNc2ccc(Cl)cc2Cl)c2ccccc12`, the “activity change, negative = inhibition” value was “inactive”.

As for `O=C(NC1CCSc2ccccc21)c1ccc([N+](=O)[O-])cc1` (stereo not drawn), the “activity change, negative = inhibition” value is “inactive”.

Regarding `COC(=O)c1cccc2nc3c(C(C)O)cccc3nc12` (stereo not drawn), the “activity change, negative = inhibition” value is “inactive”.

As to `C#CCOCCOCCOCCNc1nc(N2CCN(C(=O)[C@H]([C@@H](C)O)n3cc(CCCCN)nn3)CC2)nc(N2CCN(C(=O)[C@H](C)n3cc(CCCN=C(N)N)nn3)CC2)n1`, the “activity change, negative = inhibition” value was “inactive”.

With `CC(=O)O[C@@H]1[C@@H](O)[C@@H](O)[C@H](Oc2c(-c3ccc(O)cc3)oc3c(CC=C(C)C)c(O)cc(O)c3c2=O)O[C@H]1C`, the “activity change, negative = inhibition” value was “inactive”.

Regarding `CCOc1ccc(/C=N/n2c(C)nc3ccccc3c2=O)cc1`, the “activity change, negative = inhibition” value was “inactive”.

With `Oc1ccc(C2C=C(c3ccc(F)cc3)Nc3ncnn32)cc1` (stereo not drawn), the “activity change, negative = inhibition” value is “inactive”.

Take `FC(F)(F)c1ccc(Cl)c(-n2c(-c3cc(-c4ccco4)[nH]n3)n[nH]c2=S)c1`: the “activity change, negative = inhibition” value is “inactive”.

For the compound `Cc1ccc(C)c(NC(=O)CCC(=O)NNC(=S)Nc2ccccc2)c1`, the “activity change, negative = inhibition” value is “inactive”.

As to `Cc1c(C#N)c(O)[nH]c(=O)c1N=Nc1ccc(S(N)(=O)=O)cc1`, the “activity change, negative = inhibition” value was “inactive”.

As to `O=C1OC(C(=O)O)Cc2ccccc21` (stereo not drawn), the “activity change, negative = inhibition” value is “inactive”.

In the case of `CC(C#N)(Nc1ccc(Cl)cc1)c1cccnc1` (stereo not drawn), the “activity change, negative = inhibition” value is “inactive”.

In the case of `Nc1c(NCc2ccccc2)c(=O)[nH]c(=O)n1Cc1ccccc1`, the “activity change, negative = inhibition” value was “inactive”.

Take `NC1=NC(=O)/C(=C\c2ccc(O)c([N+](=O)[O-])c2)S1`: the “activity change, negative = inhibition” value was “inactive”.

As for `CSc1nsc2nc(=O)c(/C=C3\C(C)=Nc4ccc(C)cc43)c(N)n12`, the “activity change, negative = inhibition” value is “inactive”.

`COc1ccc(N=Nc2c(C)[nH][nH]c2=O)cc1`: the “activity change, negative = inhibition” value was “inactive”.

In the case of `COC(=O)CCC(=O)NC(=S)Nc1sc(C)c(C)c1C(N)=O`, the “activity change, negative = inhibition” value is “inactive”.

Regarding `Cc1cccnc1Nc1nc(-c2ccc(O)cc2O)cs1`, the “activity change, negative = inhibition” value is “inactive”.

Regarding `O=c1[nH]c2ccccc2n1Cc1ccc(Cl)cc1`, the “activity change, negative = inhibition” value is “inactive”.

Regarding `CSc1ccc(/C=C/C(=O)c2ccc(NC(C)=O)cc2)cc1`, the “activity change, negative = inhibition” value was “inactive”.

Consider `Cc1c(CN2CCCC(C)C2)c(O)n(CCO)c(=O)c1C#N` (stereo not drawn), for which the “activity change, negative = inhibition” value is “inactive”.

Turning to `Cc1nc2c(N=Nc3ccccc3F)c(N)nn2c(N)c1C#N`, the “activity change, negative = inhibition” value is “inactive”.

The term AC50 denotes the concentration at which the activity in the assay is half-maximal. `CNC(=O)c1sc(N2N=C3/C(=C/c4ccccc4)CCCC3C2c2ccccc2)nc1C` (stereo not drawn): the AC50 is 7.59 µM.

In the case of `COc1cc(/C=N/NC(=O)CNS(=O)(=O)c2ccc(C)cc2)cc(OC)c1OC`, the “activity change, negative = inhibition” value is “inactive”.

For `CC(=O)NNc1ncnc2ccccc12`, the “activity change, negative = inhibition” value is “inactive”.

For `N#Cc1cc2c(=O)n3ccccc3nc2n(CCCN2CCOCC2)c1=O`, the “activity change, negative = inhibition” value was “inactive”.

`Nc1c(C(=O)Nc2ccccc2)sc2nc3c(c(-c4ccco4)c12)CCC3`: the “activity change, negative = inhibition” value was “inactive”.

In the case of `CCOc1cc(/C=N/Nc2nc(=O)[nH]nc2C)ccc1O`, the “activity change, negative = inhibition” value was “inactive”.
